From publication PMC5700043, “Structural insights into substrate and inhibitor binding sites in human indoleamine 2,3-dioxygenase 1” (Nature Communications, 2017) come the findings set out here.

Assay [1] has as its target T1, human indoleamine 2,3-dioxygenase 1 (hIDO1) (Homo sapiens, UniProt P14902, F270G).
T1 construct: gene IDO1
Briefly: X-ray crystal structure ([…] Å); activity titration (inhibition). It counts as biochemical.

Assay [2] concerns the target T2, human indoleamine 2,3-dioxygenase 1 (hIDO1) (Homo sapiens, UniProt P14902).
T2 construct: gene IDO1
Briefly: X-ray crystal structure ([…] Å); activity titration. It counts as biochemical.

The target of assay [3] is T2, human indoleamine 2,3-dioxygenase 1 (hIDO1). Kind of assay: X-ray crystal structure ([…] Å); steady-state activity. Type of assay: binding.
Assay [4] has as its target T1, human indoleamine 2,3-dioxygenase 1 (hIDO1). Briefly: X-ray crystal structure ([…] Å), two Trp bound; steady-state activity. It counts as binding.

T1 sequence (P14902 11-403 F270G): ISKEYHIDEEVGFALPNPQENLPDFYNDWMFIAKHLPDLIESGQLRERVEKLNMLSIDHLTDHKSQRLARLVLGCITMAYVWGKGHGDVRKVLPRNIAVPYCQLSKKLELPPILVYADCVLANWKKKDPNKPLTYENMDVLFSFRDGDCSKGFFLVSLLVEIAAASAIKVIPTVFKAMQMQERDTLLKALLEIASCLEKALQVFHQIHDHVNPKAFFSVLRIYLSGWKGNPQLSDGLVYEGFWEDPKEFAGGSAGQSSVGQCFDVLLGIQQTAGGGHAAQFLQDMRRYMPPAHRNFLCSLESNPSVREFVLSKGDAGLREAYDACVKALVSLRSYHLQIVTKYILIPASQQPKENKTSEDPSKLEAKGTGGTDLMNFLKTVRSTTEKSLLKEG
T2 sequence (P14902 whole entry): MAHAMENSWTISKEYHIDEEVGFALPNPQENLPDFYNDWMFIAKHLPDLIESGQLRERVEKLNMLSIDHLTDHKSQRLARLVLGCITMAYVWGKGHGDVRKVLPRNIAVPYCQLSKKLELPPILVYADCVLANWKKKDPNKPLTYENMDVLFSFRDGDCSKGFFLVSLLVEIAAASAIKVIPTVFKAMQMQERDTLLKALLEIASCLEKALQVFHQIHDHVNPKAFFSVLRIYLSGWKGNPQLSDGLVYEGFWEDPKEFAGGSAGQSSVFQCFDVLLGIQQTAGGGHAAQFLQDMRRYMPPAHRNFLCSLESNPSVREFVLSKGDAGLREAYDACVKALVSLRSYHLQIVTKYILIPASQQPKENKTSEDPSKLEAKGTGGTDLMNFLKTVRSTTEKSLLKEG

The term Kd denotes a measure of binding affinity in units of concentration. Consider `OCCc1c[nH]c2ccccc12` [IDE, 3-indole ethanol], for which the dissociation constant Kd is ~100 µM in assay [1] and ~230 µM in assay [2].
On to `N[C@@H](Cc1c[nH]c2ccccc12)C(=O)O` [Trp], for which the “X-ray crystal structure (2.40 Å); steady-state activity” value in assay [3] was “The substrate Trp binds in the distal heme pocket, which is enclosed by the JK-Loop^C and the DE-Loop”. Besides, in assay [4], the “X-ray crystal structure (3.03 Å), two Trp bound; steady-state activity” value was “Crystal structure of the F270G-CN-Trp complex in a two Trp-bound state, where both the Sa and Si sites are occupied”.
